From US12037350B2, “Compositions and methods for the prevention and/or treatment of mitochondrial disease, including Friedreich's ataxia” (Stealth BioTherapeutics Inc., priority 2020, dated 2024)

Assays:
[1] = system: frataxin deficient fibroblasts (GM03665) from Friedreich's ataxia patient; test: Frataxin Deficient Fibroblast Viability Assay (BSO Assay); assay type: cell-based; settings: for EC50: Homo sapiens, Fibroblast, FA patient fibroblasts pretreated with compound, BSO 10 mM, MTT after 48 hrs
Protocol: Example 12: Frataxin Deficient Fibroblast Viability Assay (the “BSO Assay”)
This Example was used to evaluate the various new compositions for their potential efficacy in the treatment of Friedreich's Ataxia (FA or FRDA)—substantially as described in the above cited Reference (Matthias et al.).
The stock solutions of the test articles (and control compounds) were prepared in dimethyl sulfoxide (DMSO at 10 mM), Working stock solutions (2 times concentrated) were prepared on the day of the experiment in respective cell culture medium to be used for assay (detailed medium description below). A listing of compounds used as test articles in this Example 12 are found in Table 1, below.
A patient derived frataxin deficient fibroblast cell line was obtained from Coriell Institute. More specifically, the following cell lines/DNA samples were obtained from the NIGMS Human Genetic Cell Repository at the Coriell Institute for Medical Research: GM03665. To evaluate importance of various growth conditions on cell susceptibility to BSO toxicity cells were grown on:
MEM (Sigma-Aldrich) 15% Fetal Bovine Serum (FBS) without growth factors;
MEM (Sigma-Aldrich) 15% FBS with growth factors (Catalogue number 100-18B, Recombinant Human FGF-basic (154 a.a.) and catalogue number AF-100-15, Animal-Free Recombinant Human EGF from Peprotech);
MEM199/MEM EBS (Bioconcept Ltd.) 10% FBS, insulin 10 μg/ml, L-glutamine 2 mM with growth factors (Catalogue number 100-18B, Recombinant Human FGF-basic (154 a.a.) and catalogue number AF-100-15, Animal-Free Recombinant Human EGF from Peprotech).
To conduct an experiment, fibroblast cells (from all growth conditions) were seeded (100 μL (cells 3×10^3/well) on 96-well plates in MEM199/MEM EBS medium 10% FBS, insulin 10 μg/mL, L-glutamine 2 mM with growth factors and allowed to grow on plate for 24 hrs. After 24 hrs., media was removed and then test compounds of interest were added (100 μL, 2 times concentrated stock) to 96-well plates (end DM80 concentration not exceeding 0.5%) and incubated for 24 hours. Then L-buthionine-sulfoximine (BSO, from Acros Organics, Cat. No. 235520010) was added (100 μL, 2 times concentrated stock) at end concentrations ranging from 1 to 10 mM. Both test compounds and BSO were dissolved in MEM199/MEM EBS medium 10% FBS, insulin 10 μg/mL, L-glutamine 2 mM with growth factors. Cell viability was monitored and either after 24- or 48-hours cell viability was assayed by MTT (Thiazolyl blue tetrazolium bromide) assay. For the MTT assay, media was removed and 100 μL of MTT 1 mg/mL was added, incubated for 2 hours at +37° C., then medium was removed and 100 μL of isopropanol added to dissolve sediment. Absorption was measured at 570 (OD570) and 650 (QD650) nm wavelengths. Control cells (vehicle instead of BSO and compound) and vehicle control (with BSO, but vehicle instead of test compound) were treated in the same manner as ceils with BSO and compound. All cell media contained penicillin and streptomycin 100 U/mL each.
Absorption readouts were processed as follows: ValueΔ=ValueOD570−ValueOD650 and the obtained values were used to calculate cell viability as % of control cell (i.e., no BSO, no compound, just vehicle) viability.
Except as otherwise indicated in Table 1, all samples were run in at least 3 replicates for test compounds and at least 8 replicates for controls (i.e., both control (no BSO, no compound) and vehicle control (i.e., with BSO, no compound). Exact N per data points are indicated in the figures/table legends. Results for the compounds (test articles and controls) tested are listed in Table 1, below.
This is a cell-based assay measuring cytotoxicity which results from oxidative stress subsequent to depletion of endogenous glutathione defense mechanisms. The cells were primary Friedreich Ataxia (FA) patient fibroblasts which were incubated for 48 hrs. in BSO, an inhibitor of gamma glutamyl synthetase, an enzyme required for glutathione production. […]

[2] = system: HepG2 human hepatocarcinoma cells; test: Rotenone ATP Assay (Complex I by-pass assay); assay type: cell-based
Protocol: Example 13: Rotenone ATP Assay (a Complex I by-Pass Assay)
This assay has been adapted from Haefeli R H, Erb M, Gemperli A C, Robay D, Courdier Fruh I, et al. (2011) NQO1-Dependent Redox Cycling of Idebenone: Effects on Cellular Redox Potential and Energy Levels. PLoS ONE 6(3): e17963. HepG2 human hepatocarcinoma cells are co-incubated with the electron transport chain complex I toxin rotenone +/− compounds of interest and the corresponding effect on ATP synthesis is measured with a bioluminescent substrate.
The stock solutions of the test articles (See Table 1, below for a list of the test articles examined using this assay) were prepared in dimethyl sulfoxide (DMSO at 10 mM). Working stock solutions were prepared on the day of the experiment in glucose free, serum free Dulbecco's modified Eagles medium (DMEM) supplemented with 50 micromolar rotenone.
In brief, HepG2 cells were plated at 25,000 cells per well in low glucose (1 gram/Liter) DMEM medium+10% fetal calf serum and incubated for 24 hours. The following day, the media was decanted and subsequently replaced with glucose free/serum free DMEM which has been supplemented with 50 micromolar rotenone and compound of interest. Serial dilutions of compound were prepared in 3× dilutions beginning at 25 micromolar. The cells were incubated for 60 minutes in a humidified tissue culture incubator. Following incubation, ATP levels were quantified via bioluminescent assay (Promega […] Glo Assay kit) and readings were captured on a standard microplate reader.
ATP bioluminescence is plotted versus the log of compound of interest and data are used to generate EC50 values. Curve fitting is performed using a sigmoidal dose response curve fit function (GraphPad Prism software).
EC50 values were derived from seven-point dose response curves performed on n=3 technical replicates per dose. Robustness of curve fit was assessed as a quality control measure, with an R squared value of at least 0.80 being required for a successful curve fit. Compounds of interest showing an increase in ATP bioluminescence relative to vehicle control were verified in an independent biological replicate of n=3 technical replicates per dose.
This assay is a direct measure of the ability of compounds of interest to restore ATP production under conditions of inhibition of Complex I of the mitochondrial electron transport chain. As the majority of ATP produced via the electron transport chain is thought to derive from Complex I activity, significant impairment in Complex I function has dire biological consequences. Of note, Complex I mutations are thought to drive pathophysiology in multiple mitochondrial diseases, including Leigh syndrome and Leber's Hereditary Optic Neuropathy (LHON), while diminished Complex I activity and the resultant attenuation of ATP production has been shown in neurodegenerative diseases, including Friedreich's Ataxia, Parkinson's Disease and Huntington's Disease. In brief, most compounds were tested in the Rotenone Oxygraph Assay instead of this assay but only Idebenone was active amongst Omaveloxolone, Idebenone and Vatiquinone.

HepG2 cells = test: Rotenone Oxygraph Assay (high-resolution respirometry of intact HepG2 cells); assay type: cell-based, human; settings: Homo sapiens; intact HepG2 cells, rotenone 1 μM, compound 10 μM, increase in respiration rate
Protocol: Example 15: Rotenone Oxygraph Assay (High-Resolution Respirometry of Intact HepG2 Cells)
The Oxygraph-2k (O2k, OROBOROS INSTRUMENTS, Austria) was used for measurements of respiration of intact cells. The respirometry was performed in Dulbecco's Modified Eagle Medium (DMEM) high glucose without supplements. All experiments were performed at 37° C.
HepG2 cells (ATCC collection code HB-8065™) were cultured in 10 cm^2 culture dishes in DMEM high glucose medium supplemented with 10% fetal bovine serum (FBS) and 100 units/mL penicillin and 100 μg/mL streptomycin until approximately 90% confluence was reached. Immediately prior to performing the respirometric assay, the cells were washed with media without FBS, trypsinized and resuspended in DMEM high glucose without FBS.
The final concentration of intact cells in the O2k-chamber was 0.5-10^6/mL. After stabilization of respiration, the Complex I inhibitor, rotenone, at 1 μM final concentration was added to inhibit electron flux via Complex I. Then, compound to be tested was added at 10 μM final concentration, and the change in respiration rate of intact cells was monitored. […]

[3] = system: GM03665 cells (fibroblasts from a subject with Friedreich's ataxia); test: RSL-3 Toxicity Assay (RSL-3 Assay); assay type: cell-based, human; settings: Homo sapiens, Fibroblast; GM03665 cells, RSL-3 2 μM, 24 hours, MTT
Text: Example 14: RSL-3 Toxicity Assay (RSL-3 Assay)
This assay has been adapted from: Hinman, A., Holst, C. R., Latham, J. C., Bruegger, J. J., Ulas, G., McCusker, K. P., Amagata, A., Davis, D., Hoff, K. G., Kahn-Kirby, A. H., Kim, V., Kosaka, Y., Lee, E., Malone, S. A., Mei, J. J., Richards, S. J., Rivera, V., Miller, G., Trimmer, J. K., Shrader, W. D., “Vitamin E hydroquinone is an endogenous regulator of ferroptosis via redox control of 15-lipoxygenase”, (2018) PLoS ONE 13(8): e0201369.
In brief, GM03665 cells (Coriell Institute) were seeded in 96-well plates (Sarstedt) in DMEM cell culture media containing 10% Fetal Bovine serum and 1% Penicillin-Streptomycin (Pen-Strep) antibiotic mix at the amount of 2×10^4/mL (100 μL or 2×10^3 cells per well). Cells were left to rest overnight at 37° C. in a humidified atmosphere with 5% CO2 to allow attachment of the cells to the culture plate. Test compounds were prepared as DMSO stocks (10 mM) and were serially diluted in cell culture media to obtain 2× working solutions. Cell media was discarded and replaced by 50 μL of test compound solutions or cell media with vehicle for control wells. Within 15 minutes, 2× working solution (4 μM) of 1S,3R-RSL-3 (CAS #1219810-16-8, Sigma-Aldrich) (diluted from 5 mM DMSO stock in cell culture media) was added. Final reaction volume was 100 μL and final DMSO concentration in reaction was kept below 0.2% (v/v) and equal in all wells. Final RSL-3 concentration was 2 μM and test compound final concentrations in reaction were up to 1000 nM. After 24 hours of incubation cell viability was assessed by MTT test. MTT (Sigma-Aldrich) solution 1 mg/mL in IX PBS (pH=7.4) was prepared 1 hour before the assay and filtered through Filtropur S 0.2 filters (Sarstedt). Cell media with test compounds was discarded and 100 μL of MTT solution was added to cells. The plates were incubated for 2 hours at +37° C. Thereafter, the MTT solution was removed and 100 μL of isopropanol was added to dissolve sediment. Absorption at 570 and 650 nm was measured using Hidex Sense microplate reader.
Compounds A and B and idebenone were not examined in this assay. The data presented in Table 1 indicates omaveloxolone was not active in this assay but that vatiquinone was active.
Discussion—Both BSO and RSL-3 are frequently utilized to induce the regulated cell death pathway known as ferroptosis. Ferroptosis is thought to require the joint activity of iron catalyzed oxidative stress and lipid peroxidation and has been described in cell and animal models of multiple neurodegenerative diseases, including Friedreich's Ataxia, Huntington Disease, Parkinson Disease and Alzheimer's Disease. […] Of note, the results for Compounds C-I and K were favorable with respect to inhibition of ferroptotic cell death when either BSO or RSL3 were used as initiating stimulus, differentiating these compounds from omaveloxolone and idebenone.

Row | SMILES | protection against BSO induced cell death (in words) ([1]; BSO Assay, text statement) | EC50 [1] [nM] | Complex I by-pass activity in Rotenone ATP Assay (in words) [2] | EC50 ([2]; Homo sapiens, 1 h, HepG2, 50 micromolar rotenone, 60 minutes, ATP bioluminescence) [nM] | activation at 10 µM (HepG2 cells) [%] | EC50 [3] [nM]
1 | CC1=C(C)C(=O)C(C/C=C(\C)CC/C=C(\C)CCC=C(F)F)=C(C)C1=O [Compound A, 2-((2E,6E)-11,11-difluoro-3,7-dimethylundeca-2,6,10-trien-1-yl)-3,5,6-trimethylcyclohexa-2,5-diene-1,4-dione] | best of the test compounds | 67.1 | – | – | – | –
2 | COC1=C(OC)C(=O)C(C/C=C(\C)CC/C=C(\C)CCC=C(F)F)=C(C)C1=O [Compound B, 2-((2E,6E)-11,11-difluoro-3,7-dimethylundeca-2,6,10-trien-1-yl)-5,6-dimethoxy-3-methylcyclohexa-2,5-diene-1,4-dione] | – | 199 | comparable to that of Idebenone | 1020 | – | –
3 | CCCCCCCCCCC1=C(C)C(=O)C(OC)=C(OC)C1=O [Compound D, reference compound] | – | 159 | – | – | 30 | 70
4 | COC1=C(OC)C(=O)C(CCCCCC(F)(F)F)=C(C)C1=O [Compound E, 2,3-dimethoxy-5-methyl-6-(6,6,6-trifluorohexyl)cyclohexa-2,5-diene-1,4-dione] | – | 359 | – | – | 49 | 135
5 | COC1=C(OC)C(=O)C(CCCCCC(F)F)=C(C)C1=O [Compound F, 2-(6,6-difluorohexyl)-5,6-dimethoxy-3-methylcyclohexa-2,5-diene-1,4-dione] | – | 689 | – | – | 44.7 | 146
6 | COC1=C(OC)C(=O)C(CCCCCCF)=C(C)C1=O [Compound G, 2-(6-fluorohexyl)-5,6-dimethoxy-3-methylcyclohexa-2,5-diene-1,4-dione] | – | 555 | – | – | 42.7 | 205
7 | CCCCCCCC1=C(C)C(=O)C(OC)=C(OC)C1=O [Compound H, 2-heptyl-5,6-dimethoxy-3-methylcyclohexa-2,5-diene-1,4-dione] | – | 241 | – | – | 41.8 | 56
8 | COC1=C(OC)C(=O)C(CCCC(F)(F)F)=C(C)C1=O [Compound I, 2,3-dimethoxy-5-methyl-6-(4,4,4-trifluorobutyl)cyclohexa-2,5-diene-1,4-dione] | – | 772 | – | – | 37.8 | 479
9 | COC1=C(OC)C(=O)C(CCC[Si](C)(C)C)=C(C)C1=O [Compound K, 2,3-dimethoxy-5-methyl-6-(3-(trimethylsilyl)propyl)cyclohexa-2,5-diene-1,4-dione] | – | – | – | – | 41.4 | 75
